Measured values reported in US10071981B2, “Method of priming plants against abiotic stress factors” (Research Foundation of The City University of New York, priority 2014, dated 2018).

Experiments:
Assay type in all cases: in vivo
Medicago sativa plants [1] = experiment: Hydrogen peroxide content in leaves of drought-stressed plants; conditions: FIG. 14A
Procedure: (§1) Mature (42 d) Medicago sativa plants were used for the purposes of this study. These were grown in soil medium under controlled, optimal growth conditions and were then subjected to drought stress. Drought was imposed by withholding watering until drought symptoms (loss of turgour, wilting, chlorosis) were observed (6 d after stress imposition). Samples were then re-watered to observe recovery potential after 1 day (7 d). Both NOSH and NOSH-aspirin were applied at 100 μM concentration by foliar spraying at the start of stress imposition. The hybrid donors were diluted in 30% (v/v) methanol. Physiological parameters (stomatal conductance and chlorophyll fluorescence) were measured with a DT-Porometer AP4 (Delta-TDevices, Cambridge, UK) and an OptiSci OS-30p chlorophyll fluorometer (Opti-Sciences, Hudson, N.H., USA) respectively (Filippou et al., 2013). Chlorophyll fluorescence (Fv/Fm) of leaves represents the maximum photochemical efficiency of photosystem II (PSII). Cellular damage was evaluated by lipid peroxidation levels (TBARS content), nitric oxide (NO) content (nitrosative stress) and hydrogen peroxide (H2O2) content (oxidative stress) as previously described (Filippou et al., 2011; Tanou et al., 2012), while osmoprotective capacity was evaluated by proline content (ninhydrin assay) as previously described (Antoniou et al., 2013). Antioxidant enzyme activities (SOD and CAT) were measured as previously described (Filippou et al., 2014). Real-time RT-PCR gene expression analysis was carried out using a Biorad IQ5 thermocycler as previously described (Filippou et al., 2013). Relative quantification of gene expression and statistical analysis of all qRT-PCR data (pairwise fixed reallocation randomization test) were performed using the REST software according to Pfaffl et al. (2002). The actin 11 gene was used as a housekeeping reference gene. All analyses were carried out using three independent biological pools of samples as replicates (with a minimum of fifteen independent plants per pooled sample). The experimental setup is shown schematically in FIG. 8.
Abiotic stress conditions are associated with increased levels of reactive oxygen (ROS) and reactive nitrogen (RNS) species content, which are toxic for the cells. During such conditions, the production of ROS and RNS exceeds the capacity of the antioxidative defense systems to remove them, causing nitro-oxidative stress.

[2] = system: Arabidopsis thaliana Col-0 plants; experiment: Growth promotion (leaf area, ImageJ leaf series) on MS agar plates; conditions: 23 DAS; for true leaf 4 and 5 area: vs control samples
Procedure: An in vitro experiment was carried out in order to evaluate the potential of NOSH and NOSH-A for growth promotion in terms of leaf area increase in Arabidopsis thaliana plants. Arabidopsis thaliana Col-0 plants were used for the purposes of this study. Seeds were placed on MS agar plates containing 10 μM or 100 μM NOSH or NOSH-A (diluted in 20% (v/v) acetone) which were then incubated in the dark at 4° C. for 4 days for stratification purposes. Appropriate control plates were also prepared. The plates were then placed in a growth chamber and leaves were sampled at 23 DAS (days after sowing). Complete leaf series were examined from seven individual plants per treatment (n=7). A complete leaf series consists of all leaves from each individual plant, starting from the cotyledons and including all true leaves, harvested and examined in order of presence on the plant (from older to younger true leaf). These leaves are excised and placed on agar plates where photographs are taken and leaf areas are calculated using ImageJ software (http://imagej.nih.gov/ij/).

Medicago sativa plants [3] = experiment: Proline content (ninhydrin assay) in leaves of drought-stressed plants; conditions: 100 μM; vs drought-stressed alone samples; FIG. 15
Procedure: as §1, with “Antioxidant enzyme activities (SOD and CAT) were measured as previously described (Filippou et al., 2014). Real-time RT-PCR gene expression analysis was carried out using a Biorad IQ5 thermocycler as previously described (Filippou et al., 2013). Relative quantification of gene expression and statistical analysis of all qRT-PCR data (pairwise fixed reallocation randomization test) were performed using the REST software according to Pfaffl et al. (2002). The actin 11 gene was used as a housekeeping reference gene. All analyses were carried out using three independent biological pools of samples as replicates (with a minimum of fifteen independent plants per pooled sample). The experimental setup is shown schematically in FIG. 8.” left out

Medicago sativa plants [4] = experiment: Physiological measurements (stomatal conductance, chlorophyll fluorescence) in drought-stressed plants; conditions: 100 μM; vs drought-stressed samples; FIG. 12
Procedure: as §1

Medicago sativa plants [5] = experiment: Lipid peroxidation (leaf MDA/TBARS content) in drought-stressed plants; conditions: FIG. 13
Procedure: as §1
(§2) An examination of cellular damage levels was performed by means of spectrophotometric determination of lipid peroxidation.

[6] = system: Medicago truncatula plants; experiment: as above; conditions: for leaf MDA content (lipid peroxidation): diluted in 70% (v/v) MetOH, FIG. 1
Source text: Cellular damage in leaves can be measured by determining lipid peroxidation (Malondialdehyde [MDA] content) and hydrogen peroxide (H2O2) levels. Lipid peroxidation is a widely used stress indicator of plant membranes. For example, the method described by Heath and Packer is the basic protocol used or adapted in numerous studies dealing with lipid peroxidation. See Heath R L, Packer L. 1968, Photoperoxidation in isolated chloroplasts. I. Kinetics and stoichiometry of fatty acid peroxidation. Archives in Biochemistry and Biophysics 125, 189-198. Measuring hydrogen peroxide levels is also well known in the art.
Mature (40 d) Medicago truncatula ecotype Jemalong A17 plants were used for the purposes of this study. These were grown in soil medium under controlled, optimal growth conditions and were then subjected to drought stress. Drought was imposed by withholding watering for 9 d (for detailed growth and stress conditions see Filippou et al., 2011). Both NOSH and NOSH-aspirin were applied at 100 μM concentration by foliar spraying at the start of stress imposition. The hybrid donors were diluted in 70% (v/v) and 30% (v/v) methanol, 20% (v/v) acetone or 20% (v/v) DMSO. Cellular damage was evaluated by lipid peroxidation levels (TBARS content) and hydrogen peroxide (H2O2) content as previously described (Filippou et al., 2011; Tanou et al., 2012), while osmoprotective capacity was evaluated by proline content (ninhydrin assay) as previously described (Antoniou et al., 2013). Real-time RT-PCR gene expression analysis was carried out using a Biorad IQ5 thermocycler as previously described (Filippou et al., 2013b). Relative quantification of gene expression and statistical analysis of all qRT-PCR data (pairwise fixed reallocation randomization test) were performed using the REST software according to Pfaffl et al. (2002). The actin 11 gene was used as a housekeeping reference gene. All analyses were carried out using three independent biological pools of samples as replicates (with a minimum of three independent plants per pooled sample).
as §2

Medicago sativa plants [7] = experiment: Macroscopic (phenotypic) observation of drought-stressed plants; conditions: for phenotype (vitality, turgor, greening): 100 μM foliar spraying, 30% MetOH, 6 d after stress imposition, vs drought-stressed plants, FIG. 9; for recovery capacity (phenotype): day 7 (6 d drought + 1 d rewatering), vs drought-stressed alone, FIG. 10; for phenotype after second wave of drought stress: day 13, another 6 days without watering, FIG. 11
Procedure: where cPTIO represents a NO inhibitor, while HXL is a H2S inhibitor. In addition to the previous setup of sampling control and drought-stressed samples, plants were re-watered at 6 d after drought stress imposition and additional sampling was carried out 1 d after rewatering to examine recovery of plants, while a second wave of drought stress was imposed to see if primed plants develop a longer-term, ‘memory’ effect. Plant Material and Stress Conditions
as §1

[8] = 100 μM, 6 d drought, vs drought-stressed samples
[9] = rewatering at 7 d vs respective pretreated, drought-stressed samples at 6 d
[10] = 100 μM foliar spraying, drought 9 d

Row | SMILES | H2O2 content (Medicago sativa plants [1]; [8]) | H2O2 content (Medicago sativa plants [1]; [9]) | growth induction (macroscopic analysis) ([2]; 10 μM in MS agar) | true leaf 4 and 5 area ([2]; 10 μM, n=7, FIG. 22) | growth induction (macroscopic analysis) ([2]; 100 μM in MS agar) | proline content (Medicago sativa plants [3]) | chlorophyll fluorescence (Fv/Fm) (Medicago sativa plants [4]) | stomatal conductance (Medicago sativa plants [4]) | MDA content (lipid peroxidation) (Medicago sativa plants [5]; [8]) | MDA content (lipid peroxidation) (Medicago sativa plants [5]; 7 d (after rewatering)) | lipid peroxidation levels (leaf MDA content) ([6]; 100 μM foliar spraying, 30% (v/v) MetOH, drought 9 d, vs drought-stressed control, FIG. 2) | leaf MDA content (lipid peroxidation) [6, 10] | lipid peroxidation levels ([6]; 100 μM, solvent 20% DMSO or 20% acetone (solvent itself toxic)) | phenotype (vitality, turgor, greening) (Medicago sativa plants [7]) | recovery capacity (phenotype) (Medicago sativa plants [7]) | phenotype after second wave of drought stress (Medicago sativa plants [7]) | overall rosette area (total leaf area per plant), increase compared with control plants ([2]; 10 μM, n=7, FIG. 22) [%] | greening of leaves ([2]; MS agar plates, FIGS. 18-21)
1 | O=C(CCCO[N+](=O)[O-])Oc1ccccc1C(=O)Oc1ccc(-c2cc(=S)ss2)cc1 [NOSH-A] | significantly reversed | ameliorated even further | visible growth induction | no significant increase | contrarily | significantly lower proline content | significantly higher | significantly higher | statistically significant protection | maintained low MDA content levels close to those of control, watered samples | significantly lower lipid peroxidation levels | statistically significant protection | lower lipid peroxidation levels | significantly improved vitality, turgor and greening | notably improved recovery capacity | maintained growth and vitality | – | –
2 | O=C(CCCO[N+](=O)[O-])Oc1ccc(-c2cc(=S)ss2)cc1 [NOSH] | significantly reversed | ameliorated even further | visible growth induction | significantly higher | contrarily | significantly lower proline content | significantly higher | significantly higher | statistically significant protection | maintained low MDA content levels close to those of control, watered samples | – | lowered | – | significantly improved vitality, turgor and greening | notably improved recovery capacity | maintained growth and vitality | 37 | increased greening
